Measured values taken from patent publication US20240374631A1, “A COMPOSITION FOR IMPROVING GUT MICROBIOTA, BEHAVIOURAL PATTERN, ALPHA-SYNUCLEIN LEVELS, SLEEP PATTERN AND/OR SERUM MELATONIN” (GN Corporation Co Ltd, priority 2021, published 2024).

Tested on: gut microbiota
Assay: Gut microbiome analysis (16S rRNA sequencing of fecal samples) in STAM model of NASH
Format: in vivo, C57BL/6J mice
Conditions: pre (baseline)
Excerpt: The study is reported in accordance with Animal Research: Reporting of In Vivo Experiments (ARRIVE) guidelines. C57BL/6J mice were obtained from Japan SLC, Inc. (Japan). All animals used in this study were cared for under the following guidelines: Act on Welfare and Management of Animals (Ministry of the Environment, Japan, Act No. 105 of Oct. 1, 1973), standards relating to the care and management of laboratory animals and relief of pain (Notice No. 88 of the Ministry of the Environment, Japan, Apr. 28, 2006) and the guidelines for proper conduct of animal experiments (Science Council of Japan, Jun. 1, 2006). Protocol approvals were obtained from SMC Laboratories, Japan's IACUC (Study reference no: […] Mice were maintained in a specific pathogen-free (SPF) facility under controlled conditions of temperature (23±3° C.), humidity (50±20%), lighting (12-hour artificial light and dark cycles; light from 8:00 to 20:00) and air exchange. The STAM model of NASH was induced as previously described [D10]. Mice were given a single subcutaneous injection of 200 μg streptozotocin (STZ, Sigma-Aldrich, USA) solution 2 days after birth and fed with a high-fat diet (HFD, 57 kcal % fat, Cat #HFD32, CLEA Japan, Inc., Japan) from 4-9 weeks of age. All mice develop liver steatosis and diabetes and at […] mice had established steatohepatitis, histologically. Studygroups: There were five study groups, described below. Eight mice were included in each study group. Eight NASH mice were orally administered vehicle supplemented with AFO-202 Beta Glucan at a dose of 1 mg/kg in a volume of 5 mL/kg once daily from 6 to 9 weeks of age. Eight NASH mice were orally administered vehicle supplemented with Telmisartan at a dose of 10 mg/kg once daily from 6 to 9 weeks of age. Frequency: Fecal samples were collected at the 6 weeks of age (before administration) and 9 weeks of age (before sacrifice). Procedure: At 6 weeks of age, fecal samples were collected from each mouse by clean catch method. […] A sterile petri dish was placed on the bench. Gently massage the abdomen, position the bottom of mouse over a fresh petri dish, and collect 1-2 fecal pellets. At sacrifice, fecal samples were aseptically collected from cecum. The tubes with feces were placed on ice immediately. These tubes were snap frozen in liquid nitrogen and stored at -80° C. for shipping. In this analysis, the 16S rRNA sequence data acquired by the next-generation sequencer from the fecal […] was used to perform community analysis using the QIIME2 program for microbial community analysis. The raw read data in FASTQ format output from the next-generation sequencer was trimmed to remove adapter sequences and low QV regions that may be included in the data. Cutadapt was used to remove adapter sequences from DNA sequencing reads. Trimmomatic was used as read trimming tool for Illumina NGS data. The adapter sequence was trimmed using the adapter trimming program “cutadapt” if the Trimming of the region at the end of the read sequence overlapped the corresponding sequence by at least one base (mismatch tolerance: 20%). When reads containing N were present in at least one of Read1 and Read2, both Read1 and Read2 were removed. Trimming of low QV regions was performed on the read data after processing using the QV trimming program “Trimmomatic” under the following conditions. The window of 20 bases is slid from the 5' side, and the area where the average QV is less than 20 is trimmed. After trimming, only the reads with more than 50 bases remaining in both Read1 and Read2 were taken as output. The microbial community analysis based on 16S rRNA sequence was performed on the sequence data trimmed in the previous section using the microbial community analysis program “QIIME2”. The annotation program “sklearn” included in QIIME2 is used to annotate the ASV (OTU) sequences. […]

For `CCCc1nc2c(C)cc(-c3nc4ccccc4n3C)cc2n1Cc1ccc(-c2ccccc2C(=O)O)cc1` [Telmisartan], the “Abundance: Ruminococcaceae, Oscillospira, —” value (from here on “Abundance … Oscillospira, —”) (line r193) was 57, the “Abundance: Lactobacillaceae, Lactobaccilus, reuteri” value (line r194) was 0 and the “Abundance: Coriobacteriaceae, Adlercreutzia, —” value (line r195) was 58. The “Abundance: Lachnospiraceae, —, —” value (line r196) was 0, the “Abundance: S24-7, —, —” value (line r197) was 64 and the “Abundance: Turicibacteraceae, Turicibacter, —” value (line r198) was 0. The “Abundance: S24-7, —, —” value (line r199) was 45, the “Abundance: Rikenellaceae, —, —” value (line r200) was 25 and the “Abundance: Enterobacteriaceae, Other, Other” value (line r201) was 0. The “Abundance: Rikenellaceae, Other, Other” value (line r202) was 47, the “Abundance: Lactobacillaceae, Lactobaccilus, Other” value (line r204) was 0 and the “Abundance: —, —, —” value (line r205) was 60. The “Abundance: S24-7, —, —” value (line r206) was 27, the “Abundance: S24-7, —, —” value (line r207) was 35 and the “Abundance: —, —, —” value (line r208) was 85. For the same compound, the “Abundance: Enterobacteriaceae, Klebsiella, Other” value (line r209) was 0, the “Abundance: —, —, —” value (line r210) was 63 and the “Abundance: Lachnospiraceae, Other, Other” value (line r211) was 48. For the same compound, the “Abundance … Oscillospira, —” value (line r212) was 0, the “Abundance … Oscillospira, —” value (line r213) was 71 and the “Abundance: Bacteroidaceae, Bacteroides, acidifaciens” value (line r214) was 27. For the same compound, the “Abundance: Erysipelotrichaceae, —, —” value (line r215) was 51, the “Abundance: Lachnospiraceae, Dorea, —” value (line r216) was 98 and the “Abundance: Enterobacteriaceae, Enterobacter, Other” value (line r217) was 0. The “Abundance … Oscillospira, —” value (line r218) was 42, the “Abundance: Ruminococcaceae, Other, Other” value (line r219) was 61 and the “Abundance … Oscillospira, —” value (line r220) was 0. The “Abundance: Rikenellaceae, —, —” value (line r221) was 31, the “Abundance: Lachnospiraceae, Other, Other” value (line r223) was 98 and the “Abundance: Other, Other, Other” value (line r224) was 18. The “Abundance … Oscillospira, —” value (line r225) was 79, the “Abundance: S24-7, —, —” value (line r226) was 38 and the “Abundance: Lachnospiraceae, —, —” value (line r227) was 3. For the same compound, the “Abundance: Streptococcaceae, Staphylococcus, —” value (line r228) was 0, the “Abundance: —, —, —” value (line r229) was 96 and the “Abundance: —, —, —” value (line r230) was 87. For the same compound, the “Abundance: —, —, —” value (line r231) was 0, the “Abundance: Other, Other, Other” value (line r232) was 10 and the “Abundance: Aerococcaceae, Aerococcus, —” value (line r233) was 0. For the same compound, the “Abundance: Ruminococcaceae, —, —” value (line r234) was 0, the “Abundance: —, —, —” value (line r235) was 61 and the “Abundance: Streptococcaceae, Staphylococcus, —” value (line r236) was 0. The “Abundance … Oscillospira, —” value (line r237) was 0, the “Abundance: —, —, —” value (line r238) was 0 and the “Abundance: Ruminococcaceae, Ruminococcus, —” value (“Abundance … Ruminococcus, —” below) (line r239) was 0. For the same compound, the “Abundance: —, —, —” value (line r240) was 6, the “Abundance: Other, Other, Other” value (line r241) was 0 and the “Abundance … Oscillospira, —” value (line r242) was 30. For the same compound, the “Abundance: Lachnospiraceae, [Ruminococcus], gnavus” value (line r243) was 27, the “Abundance: Lachnospiraceae, —, —” value (line r244) was 0 and the “Abundance: Other, Other, Other” value (line r245) was 0. For the same compound, the “Abundance … Oscillospira, —” value (line r246) was 37, the “Abundance: —, —, —” value (line r247) was 69 and the “Abundance: Other, Other, Other” value (line r248) was 0. The “Abundance: Other, Other, Other” value (line r249) was 0, the “Abundance: Other, Other, Other” value (line r250) was 68 and the “Abundance: Lachnospiraceae, Clostridium, Other” value (line r251) was 0. For the same compound, the “Abundance: Lachnospiraceae, —, —” value (line r252) was 0, the “Abundance: Other, Other, Other” value (line r253) was 13 and the “Abundance: Other, Other, Other” value (line r254) was 23. The “Abundance … Oscillospira, —” value (line r255) was 25, the “Abundance: Desulfovibrionaceae, —, —” value (line r256) was 23 and the “Abundance: Dehalobacteriaceae, Dehalobacterium, —” value (line r257) was 24. The “Abundance … Ruminococcus, —” value (line r259) was 44, the “Abundance: Lachnospiraceae, Coprococcus, —” value (shortened to “Abundance … Coprococcus, —”) (line r260) was 23 and the “Abundance … Oscillospira, —” value (line r261) was 0. The “Abundance: Other, Other, Other” value (line r262) was 0, the “Abundance … Coprococcus, —” value (line r263) was 34 and the “Abundance … Oscillospira, —” value (line r264) was 87. The “Abundance: Christensenellaceae, —, —” value (line r265) was 37, the “Abundance: S24-7, —, —” value (line r266) was 44 and the “Abundance … Oscillospira, —” value (line r267) was 95. For the same compound, the “Abundance … Coprococcus, —” value (line r268) was 11, the “Abundance: Lachnospiraceae, Other, Other” value (line r269) was 0 and the “Abundance: Erysipelotrichaceae, Clostridium, cocleatum” value (line r271) was 16. The “Abundance: —, —, —” value (line r272) was 92, the “Abundance: Desulfovibrionaceae, Bilophila, —” value (line r273) was 11 and the “Abundance: —, —, —” value (line r274) was 107. For the same compound, the “Abundance: Corynebacteriaceae, Corynebacterium, stationis” value (line r275) was 0, the “Abundance: Lachnospiraceae, Other, Other” value (line r276) was 0 and the “Abundance: Lachnospiraceae, Other, Other” value (line r277) was 0. For the same compound, the “Abundance: Lachnospiraceae, —, —” value (line r278) was 14, the “Abundance: Lachnospiraceae, —, —” value (line r279) was 31 and the “Abundance: —, —, —” value (line r280) was 108. The “Abundance: —, —, —” value (line r281) was 0, the “Abundance: —, —, —” value (line r282) was 0 and the “Abundance: Ruminococcaceae, —, —” value (line r283) was 27. For the same compound, the “Abundance: —, —, —” value (line r284) was 96, the “Abundance: Lachnospiraceae, —, —” value (line r285) was 90 and the “Abundance: Dehalobacteriaceae, Dehalobacterium, —” value (line r286) was 3. The “Abundance: Other, Other, Other” value (line r287) was 0, the “Abundance: Streptococcaceae, Streptococcus, luteciae” value (line r288) was 12 and the “Abundance: —, —, —” value (line r289) was 0. For the same compound, the “Abundance: S24-7, —, —” value (line r290) was 0, the “Abundance … Ruminococcus, —” value (line r292) was 10 and the “Abundance: Lachnospiraceae, Clostridium, Other” value (line r293) was 26. For the same compound, the “Abundance: —, —, —” value (line r294) was 10, the “Abundance … Oscillospira, —” value (line r295) was 11 and the “Abundance … Coprococcus, —” value (line r296) was 20. The “Abundance: —, —, —” value (line r297) was 12, the “Abundance: S24-7, —, —” value (line r298) was 0 and the “Abundance: Lachnospiraceae, —, —” value (line r300) was 0. For the same compound, the “Abundance … Oscillospira, —” value (line r301) was 54.
